According to PMC13206195, “Low‐dose cannabidiol increases plasma concentrations of amitriptyline: A clinical drug–drug interaction study” (British Journal of Clinical Pharmacology, 2025):
Read-outs that look alike come from different tables or passages of the source.

What was measured:
[1] = cited from earlier work
[2] = Plasma pharmacokinetics (non-compartmental analysis) in open-label, fixed-sequence, 2-way crossover study in healthy participants; conditions: for Clast, Geometric mean / Clast, Mean / Clast, Median / tlag, Median / tmax, Median / AUC(0-t) / Cmax / AUClast, Geometric mean / AUClast, Mean / AUClast, Median / Cmax, Geometric mean / Cmax, Mean / Cmax, Median: fasted, plasma; for AUC(0-t) / Cmax: po; for AUC(0-t): AUClast
Procedure: (§1) This study was an open‐label, fixed sequence, 2‐way crossover study in 13 healthy participants. On Day 1, 25 mg amitriptyline and 50 mg tramadol were orally administered concurrently, followed by a wash‐out period of at least 7 days. On Day 8, 30 mg of oral CBD oil was administered 1 h prior to amitriptyline and tramadol. On Days 1 and 8, participants presented to the clinical research unit in the morning and were discharged in the evening, briefly returning in the morning of Days 2 and 9 for pharmacokinetic sampling.
The cannabidiol formulation used in this study was Clinican®, an almond oil‐based formulation containing 10% cannabidiol and manufactured by Clinical Cannabis Care (Breukelen, the Netherlands) and administered orally with 240 mL of water following an overnight fast. Single doses of 30 mg CBD were administered. […] Furthermore, we estimated that the 30 mg CBD dose is at the upper end of the range of CBD intake of patients who use CBD‐rich varieties of medicinal cannabis (or formulations containing THC and CBD, like Sativex®) for treatment of neuropathic pain symptoms,[23] and as well as an approximately median dose for OTC CBD users. Cannabidiol was administered one hour prior to amitriptyline and tramadol (during visit 2 only) to offset the slower absorption expected from an oil‐based cannabinoid formulation, compared to the victim drugs.
Generic oral formulations of tramadol (50 mg tramadol hydrochloride capsule) and amitriptyline (25 mg hydrochloride tablet) were used in this study. These doses were at the low end of the therapeutic range, allowing for a safety margin for possible increases in plasma concentrations when co‐administered with CBD. Tramadol and amitriptyline were not known to induce or inhibit CYP‐enzymes in general, and no specific pharmacokinetic interactions between the two victim drugs were known to the investigators. […] However, this risk was deemed clinically irrelevant when low, single doses were administered to healthy volunteers. Based on these consideration regarding pharmacokinetics and safety, the two victim drugs were administered together in a cocktail design.
Sampling for pharmacokinetics was performed pre‐dose and at 1, 2, 3, 4, 5, 6, 8, 12 and 24 h following the administration of amitriptyline and tramadol. Approximately 4 mL blood was collected via an i.v. catheter placed in an antecubital vein in the arm in polypropylene K2EDTA tubes. Following collection, samples were immediately cooled on ice. Within 30 min of collection, plasma was separated by centrifugation at approximately 2000 g for 10 min and promptly transferred into amber glass vials and stored at […]. The samples were analysed by the iC42 Laboratory (Department of Anesthesiology, University of Colorado, Aurora, Colorado, USA). CBD and CBD metabolites were analysed using a validated assay that was previously published (CBD metabolite concentrations not reported in this manuscript).[33] Concentrations of amitriptyline, nortriptyline, tramadol and O‐desmethyltramadol were determined using a validated assay that was based on a previously published high‐performance liquid chromatography tandem mass spectrometry (HPLC‐MS/MS) method.[34] Details regarding the bioanalytical assays used to measure CBD, amitriptyline, nortriptyline, tramadol and O‐desmethyltramadol are located in the Supplementary Materials section.
R 3.6.1 for Windows (R Foundation for Statistical Computing/R development Core Team, Vienna, Austria, 2019), PKNCA package version 0.9.5, was used to calculate pharmacokinetic parameters. PK parameter calculations were based on actual sampling time.

clinical = assay: clinical
Procedure: as §1
To establish whether significant treatment effects could be detected, the PK parameters were compared with a mixed effects model analysis of variance (ANOVA) with treatment as a fixed factor and participants as a random factor on log‐transformed data. The general treatment effect and specific contrasts were reported with the estimated difference and the 95% confidence interval, the least square mean estimates and the p‐value. All calculations were performed using SAS for Windows V9.4 (SAS Institute, Inc., Cary, NC, USA).

[3] = cited from earlier work; for mean (SD) AUC: previous trial
CYP2D6 = conditions: cited from earlier work
CYP3A4 and CYP2B6 = conditions: cited from earlier work
[4] = Visit 2 (Day 8): 30 mg CBD oral 1 h prior to 25 mg amitriptyline + 50 mg tramadol, N=12
[5] = human, in vivo, Geometric mean, Visit 2 (Day 8): 30 mg CBD oral 1 h prior to 25 mg amitriptyline + 50 mg tramadol, N=12
[6] = human, in vivo, Mean, Visit 2 (Day 8): 30 mg CBD oral 1 h prior to 25 mg amitriptyline + 50 mg tramadol, N=12
[7] = human, in vivo, Median, Visit 2 (Day 8): 30 mg CBD oral 1 h prior to 25 mg amitriptyline + 50 mg tramadol, N=12
[8] = Visit 1 (Day 1), no CBD, based on AUClast, corrected for molecular weight ratio, N=13
[9] = Visit 1 (Day 1): 25 mg amitriptyline + 50 mg tramadol oral, no CBD, N=13
[10] = Visit 2 (Day 8), 30 mg CBD 1 h prior, based on AUClast, corrected for molecular weight ratio, N=12
[11] = Visit 1: without CBD, mixed effects model on log-transformed data
[12] = Visit 2 (with 30 mg CBD) vs Visit 1 (without CBD)
[13] = Visit 2: with 30 mg CBD, mixed effects model on log-transformed data
[14] = human, in vivo, Geometric mean, Visit 1 (Day 1): 25 mg amitriptyline + 50 mg tramadol oral, no CBD, N=13
[15] = human, in vivo, Mean, Visit 1 (Day 1): 25 mg amitriptyline + 50 mg tramadol oral, no CBD, N=13
[16] = human, in vivo, Median, Visit 1 (Day 1): 25 mg amitriptyline + 50 mg tramadol oral, no CBD, N=13

## 11‐OH‐THC
[1]; 30 mg CBD administered 30 min before THC
  increase of mean AUC by 30 mg CBD: 71%

## CN(C)CCC=C1c2ccccc2CCc2ccccc21 [Amitriptyline]
[2]; human, in vivo
  baseline amitriptyline concentration: 0.85 ng/mL
clinical; human, in vivo
  AUC(0-t): 139 ng·h/mL
  Clast, back transformed LSM Visit 1: 3.40
  Cmax: 12.3 ng/mL
clinical; human, in vivo, 30 mg
  AUC(0-t): 156 ng·h/mL
  Cmax: 14.5 ng/mL
[3]
  terminal half‐life: ~ 25 h
[3]; 28 participants dosed with 10 mg of amitriptyline
  mean (SD) AUC: 156 (87.8) ng*h/mL

## C=C(C)[C@@H]1CCC(C)=C[C@H]1c1c(O)cc(CCCCC)cc1O [Cannabidiol]
[2]; [4]
  Clast, Geometric mean: 1.0 ng/mL
  Clast, Mean: 1.1 ng/mL
  Clast, Median: 1.1 ng/mL
  tlag, Median: 0.0 h
  tmax, Median: 2.0 h
[2]; [5]
  AUC(0-t): 5.3 ng·h/mL
  Cmax: 2.9 ng/mL
[2]; [6]
  AUC(0-t): 6.9 ng·h/mL
  Cmax: 3.5 ng/mL
[2]; [7]
  AUC(0-t): 6.2 ng·h/mL
  Cmax: 3 ng/mL
[3]
  terminal half‐life: ~ 60 h
[1]; previous study, 30 mg CBD tablet formulation after semi-standardized light breakfast
  mean±SD Cmax: 5.6 ± 4.6 ng/mL

## CNCCC=C1c2ccccc2CCc2ccccc21 [Nortriptyline]
[2]; human, in vivo
  MPR (metabolite to parent ratio), Geometric mean: 0.57
  MPR (metabolite to parent ratio), Mean: 0.62
  MPR (metabolite to parent ratio), Median: 0.60
clinical; human, in vivo
  AUC(0-t): 75.3 ng·h/mL
  Clast, back transformed LSM Visit 1: 3.30
  Cmax: 4.36 ng/mL
clinical; human, in vivo, 30 mg
  AUC(0-t): 79.5 ng·h/mL
  Cmax: 4.51 ng/mL
[3]
  terminal half‐life: ~ 26 h

## CN(C)C[C@H]1CCCC[C@]1(O)c1cccc(O)c1 [O‐desmethyltramadol]
[2]; [8]
  MPR (metabolite to parent ratio), Geometric mean: 0.37
  MPR (metabolite to parent ratio), Mean: 0.40
  MPR (metabolite to parent ratio), Median: 0.33
[2]; [9]
  AUClast, Geometric mean: 400.4 ng·h/mL
  AUClast, Mean: 412.0 ng·h/mL
  AUClast, Median: 388.6 ng·h/mL
  Clast, Geometric mean: 4.4 ng/mL
  Clast, Mean: 4.8 ng/mL
  Clast, Median: 4.1 ng/mL
  Cmax, Geometric mean: 35.0 ng/mL
  Cmax, Mean: 36.7 ng/mL
  Cmax, Median: 31.1 ng/mL
  tlag, Median: 0.0 h
  tmax, Median: 3.0 h
[2]; [10]
  MPR (metabolite to parent ratio), Geometric mean: 0.37
  MPR (metabolite to parent ratio), Mean: 0.39
  MPR (metabolite to parent ratio), Median: 0.32
[2]; [4]
  AUClast, Geometric mean: 399.5 ng·h/mL
  AUClast, Mean: 411.1 ng·h/mL
  AUClast, Median: 396.1 ng·h/mL
  Clast, Geometric mean: 4.0 ng/mL
  Clast, Mean: 4.4 ng/mL
  Clast, Median: 3.9 ng/mL
  Cmax, Geometric mean: 37.6 ng/mL
  Cmax, Mean: 39.5 ng/mL
  Cmax, Median: 33.6 ng/mL
  tlag, Median: 0.0 h
  tmax, Median: 2.5 h
clinical; Visit 1: without CBD, metabolite to parent ratio
  MPR, back transformed LSM Visit 1: 0.37
clinical; [11]
  AUClast, back transformed LSM Visit 1: 400.41
  Clast, back transformed LSM Visit 1: 4.43
clinical; Visit 1: without CBD, mixed effects model on log-transformed data, in ng/mL
  Cmax, back transformed LSM Visit 1: 34.99
clinical; [12]
  AUClast, Ratio of LSMs: 0.99
  Clast, Ratio of LSMs: 0.91
  Cmax, Ratio of LSMs: 1.05
  MPR, Ratio of LSMs: 0.95
clinical; Visit 2: with 30 mg CBD, metabolite to parent ratio
  MPR, back transformed LSM Visit 2: 0.36
clinical; [13]
  AUClast, back transformed LSM Visit 2: 396.86
  Clast, back transformed LSM Visit 2: 4.04
clinical; Visit 2: with 30 mg CBD, mixed effects model on log-transformed data, in ng/mL
  Cmax, back transformed LSM Visit 2: 36.84
[3]
  terminal half‐life: ~ 7 h
[3]; 25 participants dosed with 100 mg tramadol
  mean (SD) AUC: 669 (181) ng*h/mL

## COc1cccc(C2(O)CCCCC2CN(C)C)c1 (stereo not drawn) [Tramadol]
[2]; [9]
  Clast, Geometric mean: 7.4 ng/mL
  Clast, Mean: 8.9 ng/mL
  Clast, Median: 8.4 ng/mL
  tlag, Median: 0.0 h
[2]; [4]
  Clast, Geometric mean: 6.8 ng/mL
  Clast, Mean: 8.7 ng/mL
  Clast, Median: 8.0 ng/mL
  tlag, Median: 0.0 h
[2]; [14]
  AUC(0-t): 1130 ng·h/mL
  Cmax: 137 ng/mL
[2]; [5]
  AUC(0-t): 1150 ng·h/mL
  Cmax: 150 ng/mL
[2]; [15]
  AUC(0-t): 1170 ng·h/mL
  Cmax: 141 ng/mL
[2]; [6]
  AUC(0-t): 1210 ng·h/mL
  Cmax: 153 ng/mL
[2]; [16]
  AUC(0-t): 1240 ng·h/mL
  Cmax: 135 ng/mL
[2]; [7]
  AUC(0-t): 1160 ng·h/mL
  Cmax: 155 ng/mL
clinical; [11]
  Clast, back transformed LSM Visit 1: 7.41
clinical; [12]
  AUClast, Ratio of LSMs: 1.04
  Clast, Ratio of LSMs: 0.97
  Cmax, Ratio of LSMs: 1.10
clinical; [13]
  Clast, back transformed LSM Visit 2: 7.16
clinical; human, in vivo
  AUC(0-t): 1130 ng·h/mL
  Cmax: 137 ng/mL
clinical; human, in vivo, 30 mg
  AUC(0-t): 1180 ng·h/mL
  Cmax: 151 ng/mL
[3]
  terminal half‐life: 5 to 6 h
CYP2D6
  proportion of tramadol converted into O‐desmethyltramadol (O‐DSMT) by CYP2D6: approximately 80%
CYP3A4 and CYP2B6
  proportion of tramadol converted into N‐desmethyltramadol (N‐DSMT) by CYP3A4 and CYP2B6: approximately 20%
